Test results as given in patent publication US10711314B2, “Methods for diagnosing IDH-mutant cell proliferation disorders” (Agios Pharmaceuticals, Inc., priority 2009, dated 2020).
Where “and” joins values, the source holds several entries; their conditions need not be identical. Equal entries are not always repeated. Where two headings read alike, the source gives them in different places. One block for each molecule: values may come before it.

Tests used:
IDH1 R132H [1] = molecular target: T1, IDH1 R132H (Homo sapiens, UniProt O75874, R132H); assay: High throughput screening for IDH1 R132H inhibitors (NADPH/αKG, resazurin detection); format: biochemical; details: for IC50 Ratio (40/4): ratio of ICDH IC50 at 40 uM vs 4 uM NADPH
T1 construct: The resultant fragments for IDH1 (full length) and IDH2 (residues 40-452) were cloned into vector pET41a; made in house; host or cells: E. coli
Description: Assays were conducted in a volume of 76 ul assay buffer (150 mM NaCl, 10 mM MgCl2, 20 mM Tris pH 7.5, 0.03% bovine serum albumin) as follows in a standard 384-well plate: To 25 ul of substrate mix (8 uM NADPH, 2 mM αKG), 1 ul of test compound was added in DMSO. […] The reaction was incubated for 50 minutes at room temperature, then 25 ul of detection mix (30 uM resazurin, […]) was added and the mixture further incubated for 5 minutes at room temperature. The conversion of resazurin to resorufin was detected by fluorescent spectroscopy at Ex544 Em590 c/o 590.
(§1) The selectivity between wild type vs mutant could be >20-fold.

LDHa = LDHa (Homo sapiens, UniProt P00338); assay: LDHa IC50 (Table 24a); format: biochemical
LDHb = LDHb (Homo sapiens, UniProt P07195); assay: LDHb IC50 (Table 24a); format: biochemical
IDH1 wild-type = molecular target: T2, IDH1 wild-type (Homo sapiens, UniProt O75874); assay: Inhibition of oxidative decarboxylation of isocitrate to α-KG by IDH1 wild-type; format: biochemical; details: for effect on the oxidative decarboxylation of isocitrate by wild-type ICDH1: added in a titration series
T2 construct: The resultant fragments for IDH1 (full length) and IDH2 (residues 40-452) were cloned into vector pET41a; made in house; host or cells: E. coli Rosetta
Description: (§2) In these reactions, the substrate was varied while the cofactor was held constant at 500 uM. All reactions were performed in 150 mM NaCl, 20 mM Tris-Cl, pH 7.5, 10% glycerol, and 0.03% (w/v) BSA). Reaction progress was followed by spectroscopy at 340 nM monitoring the change in oxidation state of the cofactor. Sufficient enzyme was added to give a linear change in absorbance for 10 minutes.
(§3) A well-known regulatory mechanism for control of metabolic enzymes is feedback inhibition, in which the product of the reaction acts as a negative regulator for the generating enzyme.
(§4) Final concentrations: Tris 7.5 20 mM, NaCl 150 mM, MnCl2 2 mM, Glycerol 10%, BSA 0.03%, NADP 0.5 mM, IDH1 wt 1.5 ug/ml, IDH1R132S 30 ug/ml, IDH1R132H 60 ug/ml, DL-isocitrate (5-650 uM).
A reaction containing the wild-type ICDH1, NADP, and α-KG was assembled (under conditions as described above) to which was added in a titration series either (R)-2-hydroxyglutarate or the reaction product of the ICDH1 […] mutant reduction of α-KG to 2-hydroxyglutarate.

IDH1 R132H [2] = molecular target: T1, IDH1 R132H; assay: Inhibition of oxidative decarboxylation of isocitrate to α-KG by IDH1 R132H; format: biochemical
Description: as §2, §3, §4

IDH1 R132S = molecular target: T3, IDH1 R132S (Homo sapiens, UniProt O75874, R132S); assay: Inhibition of oxidative decarboxylation of isocitrate to α-KG by IDH1 R132S; format: biochemical
T3 construct: The resultant fragments for IDH1 (full length) and IDH2 (residues 40-452) were cloned into vector pET41a; made in house; host or cells: E. coli Rosetta
Description: as §2, §3, §4

IDH1 wt = molecular target: T4, IDH1 wt (Homo sapiens, UniProt O75874); assay: IDH1 wt assay (wild type vs mutant selectivity); format: biochemical
T4 construct: The resultant fragments for IDH1 (full length) and IDH2 (residues 40-452) were cloned into vector pET41a; made in house; host or cells: E. coli
From the text: as §1

glioblastoma multiforme = glioblastoma multiforme patients; cited from earlier work
[3] = IDH1/2 activity assay, forward reaction (isocitrate and NADP+); format: biochemical, human; details: Oxidative (→NADPH), recombinant IDH1; for Ki: inhibition by aKG; for Km: read-out: KM,isocitrate
Description: (§5) All reactions were performed in standard enzyme reaction buffer (150 mM NaCl, 20 mM Tris-Cl, pH 7.5, 10 mM MgCl2 and 0.03% (w/v) bovine serum albumin). For determination of kinetic parameters, sufficient enzyme was added to give a linear reaction for 1 to 5 seconds. Enzymatic binding constants were determined using curve fitting algorithms to standard kinetic models with the Sigmaplot software package (Systat Software, San Jose, Calif.). For determination of kcat, enzyme was incubated with 5×Km of substrate and cofactor; consumption of NADPH or NADP was determined by a change in the OD340 over time. In both cases an extinction coefficient of 6200 M^−1 cm^−1 was used for NADPH.

[4] = IDH1/2 activity assay, reverse reaction (α-KG and NADPH); format: biochemical, human; details: reductive (→NADP^+)
Description: as §5

[5] = Reduction of alpha-ketoglutarate with NADH by IDH1 wild-type and mutants; format: biochemical, human
Description: In order to evaluate the ability of the mutant enzymes to utilize NADH in the reduction of alpha-ketoglutarate, the following experiment was conducted.

[6] = Recombinant IDH1 enzyme assays (stopped-flow, 340 nm); format: biochemical, human; details: NADP+-dependent oxidative decarboxylation of isocitrate, vs wild-type
Description: 293T and the human glioblastoma cell lines U87MG and LN-18 were cultured in DMEM, 10% fetal bovine serum. Cells were transfected and selected using standard techniques. Protein expression levels were determined by Western blot analysis using IDHc antibody (Santa Cruz Biotechnology), IDH1 antibody (proteintech), MYC tag antibody (Cell Signaling Technology), and IDH2 antibody (Abcam). Metabolites were extracted from cultured cells and from tissue samples according to close variants of a previously reported method (Lu, W., Kimball, E. & Rabinowitz, J. D. J Am Soc Mass Spectrom 17, 37-50 (2006)), using 80% aqueous methanol (−80° C.) and either tissue scraping or homogenization to disrupt cells. […] For enzyme assays using recombinant IDH1 enzyme, proteins were produced in E. coli and purified using Ni affinity chromatography followed by Sephacryl S-200 size-exclusion chromatography. […] Chirality of 2HG was determined as described previously (Struys, E. A., Jansen, E. E., Verhoeven, N. M. & Jakobs, C. Clin Chem 50, 1391-5 (2004)). […] The IDH1 mutation status of each sample was determined using standard molecular biology techniques as described previously (Yan, H. et al. N Engl J Med 360, 765-73 (2009)). Metabolites were extracted and analyzed by LC-MS/MS as described above. […]

[7] = Enzyme kinetics of IDH1 wild-type and mutants in oxidative decarboxylation of isocitrate to α-KG; format: biochemical, human
Description: as §2
All data was fit to the Hill equation by least-squares regression analysis.

[8] = Enzyme kinetics of IDH1 wild-type and mutants in reduction of α-KG with NADPH; format: biochemical, human; details: for consumption of NADPH in reduction of α-KG: 40 ug/ml of enzyme
Description: as §2, with “reactions,” for “reactions, the”, “50” for “150”, “potassium phosphate buffer,” for “NaCl, 20 mM Tris-Cl,”, “6.5,” for “7.5,”, “glycerol,” for “glycerol, and”, “BSA, 5 mM MgCl2, and 40 mM sodium hydrocarbonate.” for “BSA).”

[9] = NADH 0.5 mM, alpha-Ketoglutarate 5 mM

LDHb, sequence (P07195 whole entry, species assumed): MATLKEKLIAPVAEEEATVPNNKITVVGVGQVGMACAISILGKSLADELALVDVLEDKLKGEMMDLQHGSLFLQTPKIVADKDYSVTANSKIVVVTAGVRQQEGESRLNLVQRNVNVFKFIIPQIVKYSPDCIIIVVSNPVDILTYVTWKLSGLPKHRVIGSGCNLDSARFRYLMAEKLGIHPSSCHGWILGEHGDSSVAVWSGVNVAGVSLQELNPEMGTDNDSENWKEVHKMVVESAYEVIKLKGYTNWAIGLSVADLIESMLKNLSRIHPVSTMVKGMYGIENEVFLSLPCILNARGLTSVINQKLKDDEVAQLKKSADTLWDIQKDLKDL
T3 sequence (O75874 whole entry R132S, the tested form may be a part): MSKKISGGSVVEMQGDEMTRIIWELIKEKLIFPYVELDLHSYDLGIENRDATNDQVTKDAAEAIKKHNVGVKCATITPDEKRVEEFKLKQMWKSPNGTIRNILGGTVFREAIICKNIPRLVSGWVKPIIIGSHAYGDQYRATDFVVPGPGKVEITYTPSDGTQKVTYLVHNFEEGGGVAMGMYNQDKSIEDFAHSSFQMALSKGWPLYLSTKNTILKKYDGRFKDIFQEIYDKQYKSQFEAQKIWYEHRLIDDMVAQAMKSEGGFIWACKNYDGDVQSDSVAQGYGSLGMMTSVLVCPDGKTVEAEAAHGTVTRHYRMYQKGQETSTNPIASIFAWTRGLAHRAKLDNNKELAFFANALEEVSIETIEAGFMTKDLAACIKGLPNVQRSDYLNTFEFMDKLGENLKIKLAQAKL
T1 sequence (O75874 whole entry R132H, the tested form may be a part): as the sequence (O75874 whole entry R132S, the tested form may be a part) above, with S132H counted along it
T2 sequence (O75874 whole entry, the tested form may be a part): as the sequence (O75874 whole entry R132S, the tested form may be a part) above, with S132R counted along it
T4 sequence (O75874 whole entry, the tested form may be a part): as the sequence (O75874 whole entry R132S, the tested form may be a part) above, with S132R counted along it

Molecule: Cc1c(/C=C2\Sc3ccccc3C2=O)c(O)n2c(nc3ccccc32)c1C#N
IC50 Ratio (40/4) (IDH1 R132H [1]): 17.42 | IC50 (LDHa): 25.4 µM | IC50 (LDHb): 64.1 µM

Molecule: O=C1NC(=S)S/C1=C/c1cccc(OCc2ccc([N+](=O)[O-])cc2)c1
IC50 Ratio (40/4) (IDH1 R132H [1]): 1.39 | IC50 (LDHa): 12.8 µM | IC50 (LDHb): > 100 µM

Molecule: O=C(O)CC[C@@H](O)C(=O)O [(R)-2-hydroxyglutarate]
effect on the oxidative decarboxylation of isocitrate by wild-type ICDH1 (IDH1 wild-type): did not show any effect

Molecule: Cc1ccc(C2=NN(c3ccccc3)C(c3cn(CCC(=O)O)nc3-c3ccccc3)C2)cc1 (stereo not shown) [drawing 31]
IC50 Ratio (40/4) (IDH1 R132H [1]): 3.38 | IDH1wt IC50 @ 1x Km (uM) (IDH1 wt; 1x Km of NADPH): NO inhibition | IC50 (LDHa): 5.92 µM | IC50 (LDHb): 17.4 µM

Molecule: O=C(O)CCC(O)C(=O)O (stereo not shown) [reaction product 2-HG, 2-hydroxyglutarate]
effect on the oxidative decarboxylation of isocitrate by wild-type ICDH1 (IDH1 wild-type): inhibit

Molecule: Cc1ccc(C2=NN(c3ccccc3)C(c3cn(CCC(=O)O)nc3-c3ccccc3)C2)cc1 (stereo not shown) [second example]
inhibition of IDH1 wt (IDH1 wt; even at 100 uM, 1× Km of NADPH): no inhibition

Molecule: Cn1nnc2c(C(N)=O)ncn2c1=O [temozolomide]
tolerability (glioblastoma multiforme): well tolerated

Molecule: R132H: recombinant IDH1 Arg132His mutant with C-terminal His8 tag expressed in E. coli
consumption of NADH in the presence of alpha-ketoglutarate [5, 9]: no measurable consumption of NADH | decrease in catalytic turnover [6]: 1000 fold

Molecule: Wt: recombinant wild type IDH1 with C-terminal His8 tag expressed in E. coli
consumption of NADPH in reduction of α-KG [8]: unable to consume NADPH | consumption of NADH in the presence of alpha-ketoglutarate [5, 9]: no measurable consumption of NADH | Ki [3]: 610 µM | kcat [3]: 130000 s⁻¹ | Km [3]: 57 µM | kcat(s^−1) ([4]; WT value estimated (est.)): ~7 (est.) s^−1

Further lines, with some results ahead:

IC50 Ratio (40/4) (IDH1 R132H [1]): 1.15 | IC50 (LDHa): 8.61 µM | IC50 (LDHb): > 100 µM
Molecule: O=C1NC(=S)S/C1=C\c1cccc(OC(=O)c2cccc(F)c2)c1

IC50 Ratio (40/4) (IDH1 R132H [1]): 1.28 | IC50 (LDHa): 33.8 µM | IC50 (LDHb): > 100 µM
Molecule: Cc1cc(C(=O)O)ccc1-c1ccc(/C=C2/NC(=O)N(Cc3ccc(Br)cc3)C2=O)o1

Ki (IDH1 wild-type; IDH1 wt 1.5 ug/ml, competitive with isocitrate, NADP 0.5 mM, read-out: Oxalomalate Ki): 955 µM | Ki (IDH1 R132H [2]; IDH1R132H 60 ug/ml, competitive with isocitrate, NADP 0.5 mM, read-out: Oxalomalate Ki): 951 µM | susceptibility to inhibition by oxalomalate (IDH1 R132H [2]; R132H mutation compared with wt): essentially unaffected | Ki (IDH1 R132S; IDH1R132S 30 ug/ml, competitive with isocitrate, NADP 0.5 mM, read-out: Oxalomalate Ki): 510 µM
Molecule: O=C(O)C(=O)C(C(=O)O)C(O)C(=O)O (stereo not shown) [Oxalomalate, oxalomalate]
susceptibility to inhibition by oxalomalate (IDH1 R132S; R132S mutation compared with wt): approximately a two-fold increase in susceptibility

IC50 when assayed at 100×Km (IDH1 R132H [1]; IDH1R132H at 100× Km of NADPH): shifted significantly | IC50 (IDH1 R132H [1]; IDH1R132H, presumably at 10× Km of NADPH): 5.74 µM
Molecule: Cc1c(C=C2Sc3ccccc3C2=O)c(O)n2c(nc3ccccc32)c1C#N [first example]

Ki (IDH1 wild-type): 612 µM | Ki (IDH1 R132H [2]): 28.6 µM | Ki (IDH1 R132S): 45.3 µM
Molecule: O=C(O)CCC(=O)C(=O)O [α-KG, α-ketoglutarate]

Ki [3]: 61 µM
Molecule: R132C
kcat [3]: 710 s⁻¹ | Km [3]: 87000 µM | kcat ([4]; WT value estimated (est.)): 550 s⁻¹ | Km ([4]; n/a indicates no measureable activity): 0.3 µM

Hill Constant ([7]; isocitrate, fit to Hill equation): 0.479 | consumption of NADPH in reduction of α-KG [8]: reduced α-KG and consumed NADPH | Ki ([8]; uncompetitive substrate inhibition by α-KG): 24600 µM | Hill Constant ([8]; α-KG): 0.479
Molecule: R132S: recombinant IDH1 Arg132Ser mutant with C-terminal His8 tag expressed in E. coli
increase in Km ([7]; Km for isocitrate compared to wild-type): 20,000 fold | Vmax ([7]; isocitrate varied, cofactor 500 uM): 95 µmol/min/mg | Vmax ([8]; α-KG varied, NADPH 500 uM, pH 6.5): 2.7 µmol/min/mg | consumption of NADH in the presence of alpha-ketoglutarate [5, 9]: demonstrated the ability to utilize NADH | Umol/min/mg ([5]; consumption of NADH, individual determinations): 0.7183 Umol/min/mg and 0.6997 Umol/min/mg | Rate (ΔA/sec) ([5]; consumption of NADH, individual determinations, NADH 0.5 mM, alpha-Ketoglutarate 5 mM): 0.001117 ΔA/sec and 0.001088 ΔA/sec | Rate (ΔA/sec) Mean ([5]; consumption of NADH, mean): 0.001103 ΔA/sec | Umol/min/mg Mean ([5]; consumption of NADH, mean): 0.709 Umol/min/mg
